Experimental data reported in ChEMBL document CHEMBL5331072, “Development of potent and selective FAAH inhibitors with improved drug-like properties as potential tools to treat neuroinflammatory conditions” (Eur J Med Chem, 2023).
In brackets after ≈: the same amount, converted by molar mass. Activity calls are given as the source filed them. The calls are words filed in the database; no cut-off is given here.

What was measured:
[1] = Cardiotoxicity in Langendorff-perfused Wistar rat heart assessed as effect on PQ interval time at 0.3 uM by ECG analysis (Rvb =40.8+/-2.3 milliseconds); assay type: toxicity, tissue-based
[2] = Cardiotoxicity in Langendorff-perfused Wistar rat heart assessed as effect on RR time at 0.3 uM by ECG analysis (reference value: 230+/-8.7 milliseconds); assay type: toxicity, tissue-based
Monoglyceride lipase = target: T1, Monoglyceride lipase (Homo sapiens, UniProt Q99685); test: Inhibition of human recombinant MAGL using 7-hydroxycoumarinyl arachidonate as substrate preincubated for 30 mins followed by substrate addition and measured after 30 mins by multimode plate reader analysis
T1 sequence (Q99685 whole entry): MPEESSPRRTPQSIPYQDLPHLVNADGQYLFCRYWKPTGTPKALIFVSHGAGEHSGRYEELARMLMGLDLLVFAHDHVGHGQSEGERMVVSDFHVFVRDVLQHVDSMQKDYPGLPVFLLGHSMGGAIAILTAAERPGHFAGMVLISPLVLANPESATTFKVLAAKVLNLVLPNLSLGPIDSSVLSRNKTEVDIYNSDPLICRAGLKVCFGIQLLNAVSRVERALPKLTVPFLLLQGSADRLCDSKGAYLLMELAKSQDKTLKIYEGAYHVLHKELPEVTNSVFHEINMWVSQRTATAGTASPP

[3] = Cardiotoxicity in Langendorff-perfused Wistar rat heart assessed as effect on QTc interval time at 0.3 uM by ECG analysis (Rvb =72.1+/-1.4 milliseconds); assay type: toxicity, tissue-based
[4] = Chemical stability of the compound at pH 7.4 measured for 24 hrs by HPLC analysis; assay type: physicochemical; conditions: buffer, read-out: Stability
1321N1 [5] = test: Cytotoxicity against human 1321N1 cells assessed as inhibition of cell growth at 30 uM measured for 24 hrs by MTT assay; assay type: functional; design: scale not given: the % may be the effect or the level left
[6] = Cardiotoxicity in Langendorff-perfused Wistar rat heart assessed as effect on heart rate at 10 uM by ECG analysis (reference value: 263.5+/-8.2 bpm); assay type: toxicity, tissue-based
[7] = Solubility of compound at pH 3 measured for 24 hrs; assay type: physicochemical; conditions: buffer
[8] = Cardiotoxicity in Langendorff-perfused Wistar rat heart assessed as effect on QRS interval time at 30 uM by ECG analysis (Rvb =13.6+/-0.7 milliseconds); assay type: toxicity, tissue-based
[9] = Cardiotoxicity in Langendorff-perfused Wistar rat heart assessed as effect on RR time at 30 uM by ECG analysis (reference value: 230+/-8.7 milliseconds); assay type: toxicity, tissue-based
[10] = Cardiotoxicity in Langendorff-perfused Wistar rat heart assessed as effect on QTc interval time at 10 uM by ECG analysis (Rvb =72.1+/-1.4 milliseconds); assay type: toxicity, tissue-based
1321N1 [11] = test: Antiinflammatory activity against human 1321N1 cells assessed as reduction in TBHP-induced ROS production at 1 uM incubated for 24 hrs by CellROX green reagent based flow cytometry assay; assay type: functional, cell-based
[12] = Cardiotoxicity in Langendorff-perfused Wistar rat heart assessed as effect on heart rate at 1 uM by ECG analysis (reference value: 263.5+/-8.2 bpm); assay type: toxicity, tissue-based
[13] = Solubility of compound at pH 7.4 measured for 24 hrs; assay type: physicochemical; conditions: buffer
[14] = Cardiotoxicity in Langendorff-perfused Wistar rat heart assessed as effect on RR time at 10 uM by ECG analysis (reference value: 230+/-8.7 milliseconds); assay type: toxicity, tissue-based
[15] = Neurotoxicity against Wistar rat Hippocampus assessed as cell survival at 0.3 to 100 nM measured for 96 hrs by densitometric analysis; assay type: toxicity, tissue-based; conditions: 0.1 µM, dose 0.3-100 nM
1321N1 [16] = test: Cytotoxicity against human 1321N1 cells assessed as inhibition of cell growth at 10 uM measured for 24 hrs by MTT assay; assay type: functional; design: scale not given: the % may be the effect or the level left
[17] = Cardiotoxicity in Langendorff-perfused Wistar rat heart assessed as effect on QTc interval time at 1 uM by ECG analysis (Rvb =72.1+/-1.4 milliseconds); assay type: toxicity, tissue-based
[18] = Cardiotoxicity in Langendorff-perfused Wistar rat heart assessed as effect on PQ interval time at 30 uM by ECG analysis (Rvb =40.8+/-2.3 milliseconds); assay type: toxicity, tissue-based
Hippocampus [19] = test: Neuroprotective activity against Wistar rat Hippocampus assessed as reduction in LPS/IFN-gamma induced PI uptake in CA1 region at 30 to 100 nM measured for 96 hrs; assay type: functional, tissue-based; conditions: dose 30-100 nM
[20] = Cardiotoxicity in Langendorff-perfused Wistar rat heart assessed as effect on heart rate at 30 uM by ECG analysis (reference value: 263.5+/-8.2 bpm); assay type: toxicity, tissue-based
1321N1 [21] = test: Antiinflammatory activity against human 1321N1 cells assessed as reduction in TBHP-induced ROS production at 100 nM incubated for 24 hrs by CellROX green reagent based flow cytometry assay; assay type: functional, cell-based
[22] = Cardiotoxicity in Langendorff-perfused Wistar rat heart assessed as effect on QTc interval time at 30 uM by ECG analysis (Rvb =72.1+/-1.4 milliseconds); assay type: toxicity, tissue-based
[23] = Cardiotoxicity in Langendorff-perfused Wistar rat heart assessed as effect on QRS interval time at 10 uM by ECG analysis (Rvb =13.6+/-0.7 milliseconds); assay type: toxicity, tissue-based
[24] = Cardiotoxicity in Langendorff-perfused Wistar rat heart assessed as effect on heart rate at 0.3 uM by ECG analysis (reference value: 263.5+/-8.2 bpm); assay type: toxicity, tissue-based
[25] = target: T2, Fatty-acid amide hydrolase 1 (Homo sapiens, UniProt O00519); test: Inhibition of human recombinant FAAH using AMC-AA as substrate preincubated for 30 mins followed by substrate addition and measured after 30 mins by multimode plate reader analysis
T2 sequence (O00519 whole entry): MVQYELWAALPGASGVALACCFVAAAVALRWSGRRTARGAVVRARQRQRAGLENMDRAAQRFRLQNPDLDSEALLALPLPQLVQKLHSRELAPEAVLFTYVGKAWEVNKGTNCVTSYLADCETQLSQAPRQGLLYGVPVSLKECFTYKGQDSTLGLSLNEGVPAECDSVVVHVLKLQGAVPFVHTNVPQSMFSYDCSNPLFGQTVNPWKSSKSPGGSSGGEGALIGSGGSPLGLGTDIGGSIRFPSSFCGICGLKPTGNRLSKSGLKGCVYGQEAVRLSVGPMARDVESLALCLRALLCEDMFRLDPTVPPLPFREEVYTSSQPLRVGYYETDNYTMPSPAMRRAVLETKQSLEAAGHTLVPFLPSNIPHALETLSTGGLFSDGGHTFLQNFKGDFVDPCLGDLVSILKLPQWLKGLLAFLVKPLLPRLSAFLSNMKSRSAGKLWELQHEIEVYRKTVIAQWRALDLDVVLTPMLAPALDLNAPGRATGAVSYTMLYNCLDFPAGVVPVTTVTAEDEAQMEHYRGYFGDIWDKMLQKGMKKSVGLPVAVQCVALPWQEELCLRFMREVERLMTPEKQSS

[26] = Cytotoxicity against mouse NIH3T3 cells assessed as inhibition of cell growth measured for 24 hrs by neutral red uptake assay; assay type: toxicity, cell-based
1321N1 [27] = test: Cytotoxicity against human 1321N1 cells assessed as inhibition of cell growth at 100 nM measured for 24 hrs by MTT assay; assay type: functional; design: scale not given: the % may be the effect or the level left
[28] = Cardiotoxicity in Langendorff-perfused Wistar rat heart assessed as effect on PQ interval time at 1 uM by ECG analysis (Rvb =40.8+/-2.3 milliseconds); assay type: toxicity, tissue-based
1321N1 [29] = test: Cytotoxicity against human 1321N1 cells assessed as inhibition of cell growth at 1 uM measured for 24 hrs by MTT assay; assay type: functional; design: scale not given: the % may be the effect or the level left
[30] = Chemical stability of the compound at pH 3 measured for 24 hrs by HPLC analysis; assay type: physicochemical; conditions: buffer, read-out: Stability
1321N1 [31] = test: Cytotoxicity against human 1321N1 cells assessed as inhibition of cell growth at 10 nM measured for 24 hrs by MTT assay; assay type: functional; design: scale not given: the % may be the effect or the level left
[32] = Cardiotoxicity in Langendorff-perfused Wistar rat heart assessed as effect on QRS interval time at 1 uM by ECG analysis (Rvb =13.6+/-0.7 milliseconds); assay type: toxicity, tissue-based
[33] = Cardiotoxicity in Langendorff-perfused Wistar rat heart assessed as effect on RR time at 1 uM by ECG analysis (reference value: 230+/-8.7 milliseconds); assay type: toxicity, tissue-based
[34] = Cardiotoxicity in Langendorff-perfused Wistar rat heart assessed as effect on PQ interval time at 10 uM by ECG analysis (Rvb =40.8+/-2.3 milliseconds); assay type: toxicity, tissue-based
Hippocampus [35] = test: Neuroprotective activity against Wistar rat Hippocampus assessed as reduction in LPS/IFN-gamma induced PI uptake in CA1 region at 3 to 1000 nM measured for 96 hrs; assay type: functional, tissue-based; conditions: dose 3-1000 nM
[36] = Cardiotoxicity in Langendorff-perfused Wistar rat heart assessed as effect on QRS interval time at 0.3 uM by ECG analysis (Rvb =13.6+/-0.7 milliseconds); assay type: toxicity, tissue-based

NC(=O)c1ccn(-c2cccc(OC(=O)N3CCN(CCCc4ccccc4)CC3)c2)c1
Time [1]: 39.2 ms | Time [2]: 223.8 ms | IC50 (Monoglyceride lipase): > 10 µM | Time [3]: 70.6 ms | remaining at 24 h [4]: > 99% | Activity (1321N1 [5]): 101.5% | Activity [6]: 263.8 bpm | solubility at 24 h [7]: 228 µM (≈ 98.6 µg/mL) | Time [8]: 14.6 ms | Time [9]: 286.4 ms | Time [10]: 71 ms | Activity (1321N1 [11]): Active | Activity [12]: 273 bpm | solubility at 24 h [13]: 42 µM (≈ 18.2 µg/mL) | Time [14]: 229.8 ms | Activity [15]: Non-Toxic | Activity (1321N1 [16]): 100% | Time [17]: 70.6 ms | Time [18]: 54.8 ms | Activity (Hippocampus [19]): Active | Activity [20]: 190.2 bpm | Activity (1321N1 [21]): Active | Time [22]: 73.5 ms | Time [23]: 14 ms | Activity [24]: 270 bpm | IC50 [25]: 0.0101 µM | IC50 at 24 h [26]: 46 µM | Activity (1321N1 [27]): 99.5% | Time [28]: 40.6 ms | Activity (1321N1 [29]): 100.3% | remaining at 24 h [30]: > 99% | Activity (1321N1 [31]): 100.5% | Time [32]: 13.8 ms | Time [33]: 220.2 ms | Time [34]: 41.2 ms | Activity (Hippocampus [35]): Active | Time [36]: 13.8 ms
